Assay [1] has as its target T1, Progesterone receptor (Homo sapiens, UniProt P06401).
T1 sequence (P06401 whole entry): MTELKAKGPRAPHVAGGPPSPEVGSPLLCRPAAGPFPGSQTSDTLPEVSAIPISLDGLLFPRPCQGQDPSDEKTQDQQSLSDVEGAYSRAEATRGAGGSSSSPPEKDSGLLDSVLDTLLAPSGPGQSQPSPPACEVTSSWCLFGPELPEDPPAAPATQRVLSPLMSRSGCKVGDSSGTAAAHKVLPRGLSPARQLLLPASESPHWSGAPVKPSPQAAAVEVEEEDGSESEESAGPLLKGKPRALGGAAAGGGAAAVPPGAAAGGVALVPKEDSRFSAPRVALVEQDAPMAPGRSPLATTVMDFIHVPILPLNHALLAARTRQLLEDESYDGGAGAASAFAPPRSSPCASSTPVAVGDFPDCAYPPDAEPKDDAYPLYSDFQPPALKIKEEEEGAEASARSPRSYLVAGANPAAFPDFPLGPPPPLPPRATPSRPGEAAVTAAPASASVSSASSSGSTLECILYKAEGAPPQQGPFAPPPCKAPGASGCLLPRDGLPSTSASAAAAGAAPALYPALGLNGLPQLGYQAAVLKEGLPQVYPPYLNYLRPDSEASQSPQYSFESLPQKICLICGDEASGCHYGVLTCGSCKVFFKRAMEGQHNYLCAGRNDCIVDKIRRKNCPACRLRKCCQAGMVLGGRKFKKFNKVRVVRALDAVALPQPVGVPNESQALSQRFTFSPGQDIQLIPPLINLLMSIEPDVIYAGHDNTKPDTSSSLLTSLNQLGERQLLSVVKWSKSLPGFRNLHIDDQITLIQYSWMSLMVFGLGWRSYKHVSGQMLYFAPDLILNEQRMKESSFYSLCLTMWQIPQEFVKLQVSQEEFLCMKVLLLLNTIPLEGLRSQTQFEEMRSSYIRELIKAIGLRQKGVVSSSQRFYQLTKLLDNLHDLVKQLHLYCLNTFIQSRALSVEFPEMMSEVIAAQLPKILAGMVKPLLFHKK
In words: Effective concentration on alkaline phosphatase activity in human T47D breast carcinoma cell line. The format is functional, cell-based.

Assay [2] deals with T2, Progesterone receptor (Rattus norvegicus) (UniProt Q63449).
T2 sequence (whole entry): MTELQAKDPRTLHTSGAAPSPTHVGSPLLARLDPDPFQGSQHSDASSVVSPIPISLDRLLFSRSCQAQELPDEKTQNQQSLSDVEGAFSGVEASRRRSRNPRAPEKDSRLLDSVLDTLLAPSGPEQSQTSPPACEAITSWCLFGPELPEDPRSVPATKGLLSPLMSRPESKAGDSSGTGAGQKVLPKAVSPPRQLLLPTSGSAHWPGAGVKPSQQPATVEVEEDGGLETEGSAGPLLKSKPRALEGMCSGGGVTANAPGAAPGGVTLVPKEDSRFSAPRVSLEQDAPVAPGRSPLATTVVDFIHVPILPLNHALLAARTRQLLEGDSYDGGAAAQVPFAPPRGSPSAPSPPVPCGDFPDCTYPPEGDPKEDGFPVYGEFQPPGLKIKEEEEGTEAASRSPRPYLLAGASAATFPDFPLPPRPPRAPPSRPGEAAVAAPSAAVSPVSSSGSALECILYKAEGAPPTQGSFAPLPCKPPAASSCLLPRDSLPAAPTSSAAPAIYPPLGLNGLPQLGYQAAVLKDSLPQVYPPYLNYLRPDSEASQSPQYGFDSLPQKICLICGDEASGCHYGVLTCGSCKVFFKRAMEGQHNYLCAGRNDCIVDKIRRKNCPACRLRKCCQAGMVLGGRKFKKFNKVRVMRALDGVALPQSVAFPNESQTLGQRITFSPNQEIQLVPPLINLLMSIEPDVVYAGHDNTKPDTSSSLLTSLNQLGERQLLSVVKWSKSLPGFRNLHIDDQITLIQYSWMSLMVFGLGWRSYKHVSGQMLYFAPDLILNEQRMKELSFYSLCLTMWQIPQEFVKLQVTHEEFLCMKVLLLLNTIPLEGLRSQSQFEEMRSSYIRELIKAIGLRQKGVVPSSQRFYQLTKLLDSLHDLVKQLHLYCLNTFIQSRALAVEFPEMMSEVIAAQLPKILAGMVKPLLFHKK
In words: Effective dose on oral administration in ovariectomized female rat decidualization model. The format is functional, organism-based.

Assay [3] addresses T2, Progesterone receptor (Rattus norvegicus). In words: Effective dose on subcutaneous administration in ovariectomized female rat decidualization model. The format is functional, organism-based.
In assay [4] the target is T1, Progesterone receptor. In words: Inhibition of [3H]P4 binding at progesterone receptor of human T47D breast carcinoma cells. The format is cell-based.
Assay [5] concerns the target T1, Progesterone receptor. In words: Inhibition of [3H]P4 to progesterone receptor (PR) of human T47D breast carcinoma cells. The format is cell-based.

What is called pEC50 is the EC50 on a negative log10 scale, so that one unit is a factor of ten. Low readings indicate a large EC50, high ones a small EC50. The term ED50 denotes the midpoint of the dose-response relation. A lower ED50 goes with an effect at a small dose. As usually defined, the pIC50 is the negative decadic logarithm of the IC50, by convention in mol/L. Read a high pIC50 as a small IC50.

pEC50, pIC50: −log10 of the molar value.

As to `CC1(C)OC(=S)Nc2ccc(-c3cc(Cl)cc(Cl)c3)cc21`, in assay [1], the pEC50 is 7.58. For the compound `CC1(C)OC(S)=Nc2ccc(-c3csc(C#N)c3)cc21`, the results for the ED50 in assay [2] and in assay [3] were 0.62 mg/kg and 0.22 mg/kg, respectively. `CCC1(CC)OC(=S)Nc2ccc(-c3cccc([N+](=O)[O-])c3)cc21` had a pEC50 in assay [1] of 8.33. The same measure, in the same setting: to `CC1(C)OC(S)=Nc2c(Br)cc(-c3ccc(C#N)c(F)c3)cc21` belongs less than 5.00. In turn, `CC1(C)OC(S)=Nc2ccc(-c3ccc(C#N)s3)cc21` had an ED50 in assay [2] of 1.5 mg/kg. In assay [1], `CC1(C)OC(=S)Nc2ccc(-c3ccccc3F)cc21` had a pEC50 of 7.94. The same measure, in the same setting: for `CC1(C)OC(=S)Nc2ccc(-c3cccc(C#N)c3)cc21` the value was 9.40; for `COc1cccc(-c2ccc3c(c2)C(C)(C)OC(=S)N3)c1`, 8.14. With `Cc1cc(Br)cc(-c2ccc3c(c2)C(C)(C)OC(=S)N3)c1`, in assay [1], the pEC50 is less than 5.00. Besides, in assay [4], the pIC50 is 7.00. In turn, `CC1(C)OC(S)=Nc2ccc(-c3cc(C#N)cc(OC(F)(F)F)c3)cc21` showed a pEC50 in assay [1] of less than 5.00. This compound also showed a pIC50 in assay [4] of 7.00. In the same order, the values of `CC1(C)OC(=S)Nc2ccc(-c3cc(Br)cc(OC(F)(F)F)c3)cc21` are less than 5.00 and 7.00. In the case of `CC1(C)OC(=S)Nc2c(F)cc(-c3cc(F)cc(C#N)c3)cc21`, the pEC50 in assay [1] was 6.00. In assay [1], `CC1(C)OC(S)=Nc2ccc(-c3cc(F)cc(Cl)c3)cc21` gave a pEC50 of 9.05. The same measure, in the same setting: to `CC1(C)OC(=S)Nc2ccc(-c3cccc(F)c3F)cc21` belongs 8.82. Consider `CN1C(=S)OC(C)(C)c2cc(-c3cccc(Br)c3)ccc21`, for which, in assay [1], the pEC50 is less than 5.00. This compound also had a pIC50 in assay [5] of 6.94.

The compound `CC1(C)OC(=S)Nc2ccc(-c3cccc(F)c3)cc21` had a pEC50 in assay [1] of 9.00. In assay [1], `CN1C(=S)OC(C)(C)c2cc(-c3cc(F)cc(Br)c3)ccc21` had a pEC50 of less than 5.00. The compound further showed a pIC50 in assay [5] of 7.00. Consider `CC1(C)OC(S)=Nc2ccc(-c3cc(F)cc(C#N)c3)cc21`, for which it took a dose of 0.1 mg/kg to reach the 50% effect level in assay [2] (ED50). For the compound `COc1cc(F)cc(-c2ccc3c(c2)C(C)(C)OC(=S)N3)c1`, in assay [1], the pEC50 was 8.59.

On to `CC1(C)OC(=S)Nc2ccc(-c3ccccc3Cl)cc21`, for which the pEC50 in assay [1] is 7.30. `CC1(C)OC(S)=Nc2ccc(-c3cc(Br)cc(C#N)c3)cc21` gave a pEC50 in assay [1] of less than 5.00. The compound further had a pIC50 in assay [4] of 7.00. With `CC1(C)OC(=S)Nc2ccc(-c3ccc(C#N)o3)cc21`, the negative-log EC50 (pEC50) in assay [1] is 8.90. Same read-out and setting: for `CC1(C)OC(=S)Nc2ccc(-c3cc(F)cc(Br)c3)cc21` the value was 8.77; for `CC1(C)OC(=S)Nc2c(Br)cc(-c3cc(F)cc(C#N)c3)cc21`, 7.10; for `CC1(C)OC(=S)Nc2ccc(-c3ccc(F)c(Cl)c3)cc21`, 7.10. The compound `COc1cc(C#N)cc(-c2ccc3c(c2)C(C)(C)OC(=S)N3)c1` gave a pEC50 in assay [1] of less than 5.00. The compound also had a negative-log IC50 (pIC50) in assay [4] of 7.00. `CC1(C)OC(=S)Nc2ccc(-c3cncc(Br)c3)cc21` had a pEC50 in assay [1] of 8.24. On the same count and under the same terms, for `SC1=Nc2ccc(-c3cccc(Cl)c3)cc2C(Cc2ccccc2)(Cc2ccccc2)O1` the value was 6.00; for `CC1(C)OC(=S)Nc2ccc(-c3cc(Cl)cc(C#N)c3)cc21`, 7.35. On the same count and under the same terms, to `C=CCC1(C)OC(=S)Nc2ccc(-c3cccc(Cl)c3)cc21` (configuration not stated) belongs 9.52; to `CCC1(CC)OC(=S)Nc2ccc(-c3cccc(Cl)c3)cc21`, 8.14; to `CC1(C)OC(=S)Nc2ccc(-c3ccc(F)c(F)c3)cc21`, 7.94. On the same count and under the same terms, for `CC1(C)OC(=S)Nc2ccc(-c3coc(C#N)c3)cc21` the value was 8.92. In the case of `CC1(C)OC(S)=Nc2ccc(-c3cc(C#N)cc(C#N)c3)cc21`, the pEC50 in assay [1] was 7.38. Regarding `CC1(C)OC(=S)Nc2ccc(-c3cc(F)cc(C#N)c3)cc21`, the pEC50 in assay [1] is 9.22. On the same count and under the same terms, to `CC1OC(=S)Nc2ccc(-c3cccc(F)c3)cc21` (configuration not stated) belongs 6.52. On to `CC1(C)OC(=S)Nc2ccc(-c3ccc(C#N)s3)cc21`, for which, in assay [1], the pEC50 is 9.15. The same measure, in the same setting: to `CC1(C)OC(=S)Nc2ccc(-c3cc(F)cc(F)c3)cc21` belongs 8.82; to `CC1(C)OC(=S)Nc2ccc(-c3cccc(Cl)c3)cc21`, 8.77; to `CC1(C)OC(=S)Nc2ccc(-c3cccc([N+](=O)[O-])c3)cc21`, 8.96. `CC1(C)OC(S)=Nc2c(Br)cc(-c3ccc(Cl)c(F)c3)cc21` had a pEC50 in assay [1] of 6.00.

In assay [1], `CC1(C)OC(=S)Nc2ccc(-c3cccc(Br)c3)cc21` showed a pEC50 of 8.60. In assay [1], `Cc1cc(C#N)cc(-c2ccc3c(c2)C(C)(C)OC(=S)N3)c1` had a pEC50 of 6.70.

In turn, `CCN1C(=S)OC(C)(C)c2cc(-c3cc(F)cc(C#N)c3)ccc21` gave a pEC50 in assay [1] of less than 5.00. This compound also had a pIC50 in assay [5] of 7.00.

In the case of `CC1(c2ccccc2)OC(=S)Nc2ccc(-c3cccc(Cl)c3)cc21` (configuration not stated), the pEC50 in assay [1] is 8.24. Compound `CC1(C)OC(=S)Nc2ccc(-c3cc(F)cc(C(F)(F)F)c3)cc21` showed a pEC50 in assay [1] of 8.60. Still for that read-out and setting: to `N#Cc1cccc(-c2ccc3c(c2)C2(CCCCC2)OC(=S)N3)c1` belongs 8.60; to `CC1(Cc2ccccc2)OC(=S)Nc2ccc(-c3cccc(Cl)c3)cc21` (configuration not stated), 7.05.

The values are drawn from ChEMBL document CHEMBL1136686 (Bioorg Med Chem Lett, 2003).
